The results in this text go back to PubChem BioAssay (NCI).

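Growth conditions: 96-well plates. Treatment: test compound, 48 hours, 5 concentrations. Analysis: linear interpolation between bracketing concentrations; unreached endpoints set to highest concentration. GI50: concentration for 50% inhibition of growth. At the TGI there is no net growth.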

Holding throughout (assay): DTP human tumour cell line panel, 48 h
For experiment [1], the system named is HOP-62 NSCLC.
Experiment [2] relates to CAKI-1 renal.
In experiment [3] the test system is LOX IMVI melanoma.
The test system of experiment [4] is HCT-116 colon.
Experiment [5] concerns SK-OV-3 ovarian.
Experiment [6] relates to NCI/ADR-RES ovarian.
For experiment [7], the system named is SF-268 CNS.
The test system of experiment [8] is OVCAR-5 ovarian.
For experiment [9], the system named is HS 578T breast.
Experiment [10] concerns U251 CNS.

As for `COc1ccc2c(O)c(/C=C3\N=Nc4ncccc43)oc2c1C[C@@H]1CCNC[C@H]1F`, the GI50 (commonly the concentration giving 50% growth inhibition) is 0.336 µM in experiment [1]; 0.848 µM in experiment [2]; 0.318 µM in experiment [3]; 0.118 µM in [4]; 2.33 µM in experiment [5]; 0.915 µM in experiment [6]. Besides, the GI50 is 0.294 µM in experiment [7], 1.02 µM in experiment [8], 1.58 µM in experiment [9] and 0.299 µM in experiment [10]. For the same molecule, the TGI – broadly, the concentration giving total growth inhibition – came out at 2.94 µM in [1]; 6.47 µM in experiment [2]; 0.972 µM in [3]; 1.21 µM in experiment [4]; 7.71 µM in experiment [5]; 4.31 µM in [6]. Also, the TGI came out at 1.39 µM in [7], 8.29 µM in [8], 5.78 µM in experiment [9] and 1.2 µM in [10].

As to `[N-]=[N+]=NCCCn1c2c(c3ccc([N+](=O)[O-])cc3c1=O)C(=O)c1cc(-c3ccccc3)ccc1-2`, the GI50 in experiment [1], in [2], in experiment [3], in experiment [4], in [5] and in experiment [6] was greater than 100 µM throughout. Further, the GI50 in experiment [7] was greater than 100 µM; in [8], greater than 100 µM; in experiment [9] it was 56.5 µM; in [10], greater than 100 µM. Moreover, the TGI in [1], in experiment [2], in experiment [3], in [4], in experiment [5] and in [6] was greater than 100 µM each time. For the same molecule, the TGI in [7], in [8], in experiment [9] and in experiment [10] was greater than 100 µM in each case.
